ChEMBL document CHEMBL4359910, “From random to rational: A discovery approach to selective subnanomolar inhibitors of human carbonic anhydrase IV based on the Castagnoli-Cushman multicomponent reaction” (Eur J Med Chem, 2019)

What was measured:
ARPE-19 [1] = assay: Cytotoxicity against human ARPE19 cells at 30 to 300 uM measured after 48 hrs under normoxia condition in presence of CoCl2 by MTT assay relative to control; format: cell-based; settings: arpe-19, 48 h
T98G = assay: Cytotoxicity against human T98G cells measured after 48 hrs under normoxia condition in presence of CoCl2 by MTT assay; format: functional, cell-based
ARPE-19 [2] = assay: Cytotoxicity against human ARPE19 cells at 300 uM measured after 48 hrs under normoxia condition in presence of CoCl2 by MTT assay; format: cell-based; settings: arpe-19, 48 h

SMILES | Activity (ARPE-19 [1]) | Activity (T98G) | Activity (ARPE-19 [2])
CC(=O)OCCNC(=O)[C@H]1CC(=O)N(c2ccc(S(N)(=O)=O)cc2)[C@@H]1c1ccc(Cl)cc1 | 80% | Dose-dependent effect | –
NS(=O)(=O)c1ccc(N2C(=O)C[C@H](C(=O)NCCCn3ccnc3)[C@H]2c2ccc(Cl)cc2)cc1 (racemic) | 80% | Dose-dependent effect | –
CN1CCN(CCCNC(=O)[C@H]2CC(=O)N(c3ccc(S(N)(=O)=O)cc3)[C@@H]2c2ccc(Cl)cc2)CC1 (racemic) | – | Dose-dependent effect | Toxic
NS(=O)(=O)c1ccc(N2C(=O)C[C@H](C(=O)NCCCN3CCCC3)[C@H]2c2ccc(Cl)cc2)cc1 (racemic) | 80% | Dose-dependent effect | –
NS(=O)(=O)c1ccc(N2C(=O)C[C@H](C(=O)NCCC(=O)O)[C@H]2c2ccc(Cl)cc2)cc1 (racemic) | – | Dose-dependent effect | –
NS(=O)(=O)c1ccc(N2C(=O)C[C@H](C(=O)NCCCO)[C@H]2c2ccc(Cl)cc2)cc1 (racemic) | – | Dose-dependent effect | –
